Results published in US10202347B2, “Compound, production method therefor, and use of said compound” (MICROBIAL CHEMISTRY RESEARCH FOUNDATION, priority 2013, dated 2019).

Tests used:
[1] = test system: human stomach cancer cells MKN-74; assay: Anti-cancer activity in vivo, Test Example 2-1: MKN-74 alone, subcutaneous tumor in nude mice; design: species or system BALB/c nu/nu nude mice; details: intravenous administration at 12.5 mg/kg, FIGS. 1A, 1B
Method: BALB/c nu/nu nude mice (female, 5 weeks old, product of Charles River Co.) were bred under the SPF conditions.
Cultured human stomach cancer cells MKN-74 were trypsinized, and the human stomach cancer cells MKN-74 (8×10^6 cells) peeled off from the culture dish were dispersed in 0.3 mL DMEM containing 10% FBS and mixed with 0.5 mL growth factor-reduced Matrigel (product of BD Biosciences Co.).
The above mixed cell liquid (0.1 mL) (cancer cells: 1×10^6 cells) was subcutaneously inoculated to the left groin region of the above mice.
The compound expressed by the Structural Formula (2) or the compound expressed by the Structural Formula (13) was intravenously administered for a predetermined period, and tumor formed under the skin was cut out and measured for weight. Note that, the administration dose of the compound expressed by the Structural Formula (2) or the compound expressed by the Structural Formula (13) was 12.5 mg/kg per administration day.
Also, a tumor volume was calculated from the following formula referring to the above NPL 1. Tumor volume (mm^3)=(major axis×minor axis^2)/2
Note that, as controls, those to which physiological saline (vehicle) was administered instead of the compound expressed by the Structural Formula (2) or the compound expressed by the Structural Formula (13) were tested in the same manner.

[2] = test system: human stomach cancer cells MKN-74 and normal stromal cells derived from the human stomach, Hs738; assay: Anti-cancer activity in vivo, Test Example 2-2: MKN-74 and stromal cells Hs738, subcutaneous tumor in nude mice; design: species or system BALB/c nu/nu nude mice; details: tumor transplanted together with stromal cells Hs738, intravenous administration at 12.5 mg/kg, FIGS. 1C, 1D
Method: A test was performed in the same manner as in Test Example 2-1 except that the use of the human stomach cancer cells MKN-74 alone in Test Example 2-1 was changed to use of the human stomach cancer cells MKN-74 and the normal stromal cells derived from the human stomach, Hs738.
Note that, a cell liquid and inoculation of the cell liquid to mice were as follows.
Cultured human stomach cancer cells MKN-74 and normal stromal cells derived from the human stomach, Hs738 were respectively trypsinized to be peeled off from the culture dishes. The above human stomach cancer cells MKN-74 (8×10^6 cells) and the above normal stromal cells derived from the human stomach, Hs738 (8×10^6 cells) were dispersed in 0.3 mL DMEM containing 10% FBS and mixed with 0.5 mL growth factor-reduced Matrigel (product of BD Biosciences Co.).
The above mixed cell liquid (0.1 mL) (a mixture of cancer cells: 1×10^6 cells, and stromal cells: 1×10^6 cells) was subcutaneously inoculated to the left groin region of the above mice.

Compound | tumor suppression (tumor volume, tumor weight Day 21) [1] | tumor suppression (tumor volume, tumor weight Day 21) [2]
CCCCCCCCc1nc2ccccc2c(OCC(=O)O)c1C [Structural Formula (2)] | significant suppression | 
CCCCCCCc1c(C)c(=O)c2ccccc2n1CN=C(SC)SC [Structural Formula (13)] |  | significant suppression
